Laboratory results: the supplement of paper PMC10307832

How the values were obtained:
Experiment in all cases: relative viability (nuclei count vs DMSO), 5 days (fraction); higher = more cells survive
Midostaurin + Vorinostat = compound: CO[C@@H]1[C@H](N(C)C(=O)c2ccccc2)C[C@H]2O[C@]1(C)n1c3ccccc3c3c4c(c5c6ccccc6n2c5c31)C(=O)NC4 [Midostaurin] + O=C(CCCCCCC(=O)Nc1ccccc1)NO [Vorinostat] (partner 1 µM)
Method in brief: (§1)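 Lung cancer cell lines were seeded in 1536-well plates and dosed by pin tool the next day, with either a single drug or a fixed anchor-drug dose combined with five library-drug doses (not always all listed) spaced in √10 steps. Five days later, one step fixed the cells and stained their nuclei (final 0.05% Triton X-100, 1% formaldehyde, 1 ug/ml Hoechst), and nuclei were counted on 4× images. Relative viability is the nuclei count in treated wells divided by the count in vehicle wells, and each value is the median of duplicate plates.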

[1] = compound: COc1cc(-c2nn([C@H]3CC[C@H](N4CCN(C(C)=O)CC4)CC3)c3ncnc(N)c23)ccc1NC(=O)c1cc2ccccc2n1C + COc1cccc2cc(-c3nc([C@H]4CC[C@H](C(=O)O)CC4)n4ncnc(N)c34)[nH]c12 [OSI-027] (partner 0.5 µM)
Method in brief: as §1

[2] = compound: COc1cc(-c2nn([C@H]3CC[C@H](N4CCN(C(C)=O)CC4)CC3)c3ncnc(N)c23)ccc1NC(=O)c1cc2ccccc2n1C + C[C@]1(O)C[C@@H](c2nc(-c3ccc4ccc(-c5ccccc5)nc4c3)c3c(N)nccn32)C1 [Linsitinib] (partner 1 µM)
Method in brief: as §1

[3] = compound: COc1cc(-c2nn([C@H]3CC[C@H](N4CCN(C(C)=O)CC4)CC3)c3ncnc(N)c23)ccc1NC(=O)c1cc2ccccc2n1C + Cc1nc(NC(=O)N2CCC[C@H]2C(N)=O)sc1-c1ccnc(C(C)(C)C(F)(F)F)c1 [Alpelisib] (partner 2 µM)
Method in brief: as §1

[4] = compound: COc1cc(-c2nn([C@H]3CC[C@H](N4CCN(C(C)=O)CC4)CC3)c3ncnc(N)c23)ccc1NC(=O)c1cc2ccccc2n1C + O=C(CCCCCCC(=O)Nc1ccccc1)NO [Vorinostat] (partner 1 µM)
Method in brief: as §1

Cell Line	relative viability (Midostaurin + Vorinostat; first compound 0.01 µM)	relative viability (Midostaurin + Vorinostat; first compound 0.03162 µM)	relative viability (Midostaurin + Vorinostat; first compound 0.1 µM)	relative viability (Midostaurin + Vorinostat; first compound 0.3162 µM)	relative viability ([1]; first compound 0.0128 µM)	relative viability ([1]; first compound 0.04048 µM)	relative viability ([1]; first compound 0.128 µM)	relative viability ([1]; first compound 1.28 µM)	relative viability ([2]; first compound 0.0128 µM)	relative viability ([2]; first compound 0.04048 µM)	relative viability ([2]; first compound 0.128 µM)	relative viability ([2]; first compound 1.28 µM)	relative viability ([3]; first compound 0.0128 µM)	relative viability ([3]; first compound 0.04048 µM)	relative viability ([3]; first compound 0.128 µM)	relative viability ([3]; first compound 1.28 µM)	relative viability ([4]; first compound 0.0128 µM)	relative viability ([4]; first compound 0.04048 µM)	relative viability ([4]; first compound 0.128 µM)	relative viability ([4]; first compound 1.28 µM)
NCI-H2126	0.812	0.631	0.866	0.831	0.686	0.661	0.646	0.547	0.825	0.765	0.701	0.537	0.757	0.858	0.746	0.536	0.92	0.621	0.658	0.636
LXF-289	0.772	0.734	0.756	0.689	0.875	0.76	0.71	0.652	1.02	0.927	0.939	1.08	1.1	1.03	1.04	0.958	0.898	0.795	0.734	0.794
NCI-H2009	0.808	0.745	0.703	0.657	0.618	0.463	0.635	0.54	1.2	1.18	1.2	0.931	1.15	1.2	1.16	1.08	0.711	0.702	0.78	0.751
NCI-H2405	1.05	1.24	1.01	1.02	0.679	0.465	0.633	0.324	0.886	0.541	0.721	0.326	0.83	0.419	0.722	0.272	1.01	0.886	0.834	0.374
NCI-H1755	0.748	0.809	0.715	0.783	0.829	0.644	0.676	0.662	1.12	0.966	0.92	0.939	1.04	0.992	0.884	0.656	1	0.945	0.721	0.951
HCC-78	0.545	0.438	0.365	0.312	0.341	0.371	0.356	0.26	0.573	0.643	0.513	0.436	0.376	0.361	0.322	0.281	0.462	0.547	0.422	0.298
LOU-NH91	0.933	0.882	0.947	0.983	0.729	0.803	0.731	0.745	0.889	1.02	1.02	0.833	0.77	0.74	0.759	0.564	0.987	0.921	0.909	0.858
NCI-H3122	0.963	0.904	0.905	0.89	0.992	0.333	0.969	0.847	1.1	–	1	0.875	0.753	–	0.772	0.537	1.49	–	0.889	0.861
HCC-827	0.869	0.724	0.897	0.873	0.817	0.658	0.666	0.744	0.957	1.02	0.958	0.995	1.11	0.961	0.942	0.726	0.72	0.979	0.765	0.389
SK-LU-1	0.735	0.765	0.685	0.47	0.4	0.291	0.284	0.206	1.23	1.26	0.839	0.558	1.15	0.917	0.821	0.441	0.797	0.763	0.765	0.724
NCI-H1975	0.695	0.706	0.574	0.416	0.676	0.669	0.611	0.277	0.872	1.06	0.837	0.407	0.659	0.757	0.547	0.257	0.724	0.735	0.624	0.41
NCI-H1651	0.566	0.571	0.566	0.593	0.664	0.748	0.531	0.644	0.879	1.11	0.871	0.638	0.965	0.941	0.911	0.862	0.571	0.618	0.545	0.495
NCI-H441	0.846	0.801	0.801	0.585	0.637	0.531	0.763	0.702	0.555	0.612	0.603	0.491	0.762	0.985	0.556	0.576	0.968	0.958	0.847	0.849
LCLC-103H	0.824	0.717	0.806	0.792	0.47	0.469	0.493	0.417	1.12	1.21	0.957	1.01	1.02	0.938	0.88	0.775	0.63	0.768	0.802	0.819
LCLC-97TM1	0.668	0.534	0.635	0.756	0.596	0.243	0.489	0.586	0.183	0.205	0.173	0.238	0.252	0.203	0.226	0.319	0.875	0.395	0.735	0.968
NCI-H727	1.4	1.11	1.16	1.26	0.591	–	0.477	0.47	0.401	–	0.162	0.33	0.62	–	0.454	0.405	1.35	–	1.22	1.25
NCI-H1355	0.665	0.672	0.619	0.667	0.47	0.315	0.507	0.433	0.997	0.867	0.918	0.818	0.981	0.795	0.828	0.737	0.801	0.639	0.641	0.625
HOP-62	0.545	0.607	0.676	0.5	0.86	0.734	0.817	0.707	0.955	0.964	0.881	0.843	1.04	0.907	0.952	0.774	1.01	0.546	0.601	0.585
NCI-H2085	0.79	0.783	0.822	0.637	0.716	0.593	0.774	0.519	0.832	0.932	0.834	0.851	1.08	0.949	0.975	0.658	0.83	1.17	0.764	0.759
